According to ChEMBL document CHEMBL4699399, “Discovery of isoxazolyl-based inhibitors of Plasmodium falciparum cGMP-dependent protein kinase” (RSC Med Chem, 2020):

Assays:
[1] = Inhibition of recombinant Plasmodium falciparum PKG using FAM-PKAtide as substrate preincubated for 15 mins followed by substrate addition and measured after 1 hr by IMAP fluorescence polarization assay
Plasmodium falciparum = test: Inhibition of recombinant Plasmodium falciparum PKG using FAM-PKAtide as substrate at 10 uM preincubated for 15 mins followed by substrate addition and measured after 1 hr by IMAP fluorescence polarization assay relative to control; conditions: time 75.0 min
[2] = Inhibition of human PKG measured up to 10 uM

Structure (SMILES)	IC50 [1] [nM]	inhibition (Plasmodium falciparum) [%]	inhibition (INH) [2]
CCN(CC)Cc1onc(-c2cccc(Cl)c2)c1-c1ccnc(N2CC(C(=O)c3ccsn3)C2)n1	2600	–	–
CCN(CC)Cc1onc(-c2cccc(Cl)c2)c1-c1ccnc(N[C@@H]2CCN(Cc3cnn(C)c3)C2)n1	–	5	–
CCN(CC)Cc1onc(-c2cccc(F)c2)c1-c1ccnc(N[C@@H]2CCN(C(=O)c3cnoc3)C2)n1	360	–	–
CCN(CC)Cc1onc(-c2cccc(Cl)c2)c1-c1ccnc(N[C@@H]2CCN(C(=O)c3c[nH]cn3)C2)n1	47	–	–
CCN(CC)Cc1onc(-c2cccc(Cl)c2)c1-c1ccnc(N[C@@H]2CCN(C(=O)c3ccn(C)n3)C2)n1	10	–	–
CCN(CC)Cc1onc(-c2cccc(Cl)c2)c1-c1ccnc(N[C@@H]2CCN(C(=O)c3nc[nH]n3)C2)n1	620	–	–
CCN(CC)Cc1onc(-c2cccc(Cl)c2)c1-c1ccnc(N[C@@H]2CCN(Cc3ccn(C)n3)C2)n1	–	5	–
Cc1onc(-c2ccccc2Cl)c1-c1ccnc(N[C@@H]2CCN(C(=O)c3cnoc3)C2)n1	2100	–	–
CCOC(=O)c1onc(-c2ccccc2)c1-c1ccnc(N[C@@H]2CCN(C(=O)c3cnoc3)C2)n1	–	23	–
Cc1onc(-c2cccc(Cl)c2)c1-c1ccnc(N[C@@H]2CCN(C(=O)c3cnoc3)C2)n1	210	–	Not Active
CCN(CC)Cc1onc(-c2cccc(Cl)c2)c1-c1ccnc(N[C@@H]2CCN(C(=O)c3cc[nH]n3)C2)n1	120	–	–
CCN(CC)Cc1onc(-c2cccc(Cl)c2)c1-c1ccnc(N[C@@H]2CCN(C(=O)c3ccon3)C2)n1	25	–	–
O=C(c1cnoc1)N1CC[C@@H](Nc2nccc(-c3c(-c4ccccc4)noc3CO)n2)C1	1000	–	–
CCN(CC)Cc1onc(-c2cccc(Cl)c2)c1-c1ccnc(N[C@@H]2CCN(C(=O)c3cn[nH]c3)C2)n1	97	–	–
Cc1onc(-c2ccccc2)c1-c1ccnc(N[C@@H]2CCN(C(=O)c3cnccn3)C2)n1	2000	–	–
CCN(CC)Cc1onc(-c2cccc(Cl)c2)c1-c1ccnc(N2CCCC2CC(=O)c2ccsn2)n1 (racemic)	–	60	–

Structure (SMILES)	IC50 [1] [nM]	inhibition (Plasmodium falciparum) [%]	inhibition (INH) [2]
CCN(CC)Cc1onc(-c2ccccc2)c1-c1ccnc(N[C@@H]2CCN(C(=O)c3cnoc3)C2)n1	850	–	Not Active
CCN(CC)Cc1onc(-c2cccc(Cl)c2)c1-c1ccnc(N2CCCC(C(=O)c3ccsn3)C2)n1 (racemic)	–	75	–
CCN(CC)Cc1onc(-c2ccc(F)cc2)c1-c1ccnc(N[C@@H]2CCN(C(=O)c3cnoc3)C2)n1	660	–	–
CCN(CC)Cc1onc(-c2cccc(Cl)c2)c1-c1ccnc(N[C@@H]2CCN(C(=O)c3cnn(C)c3)C2)n1	38	–	–
Cc1onc(-c2ccccc2)c1-c1ccnc(N[C@@H]2CCN(C(=O)c3cnoc3)C2)n1	750	–	–
CCN(CC)Cc1onc(-c2cccc(Cl)c2)c1-c1ccnc(N2CCC(C(=O)c3ccsn3)CC2)n1	–	46	–
O=C(c1cnoc1)N1CC[C@@H](Nc2nccc(-c3c(-c4ccccc4)noc3CN3CCOCC3)n2)C1	1000	–	–
CCN(CC)Cc1onc(-c2ccccc2F)c1-c1ccnc(N[C@@H]2CCN(C(=O)c3cnoc3)C2)n1	900	–	–
O=C(c1cnoc1)N1CC[C@H](Nc2nccc(-c3c(-c4ccccc4)noc3CO)n2)C1	–	60	–
Cc1onc(-c2ccccc2)c1-c1ccnc(N[C@@H]2CCN(C(=O)c3cccnc3)C2)n1	1000	–	–
CCN(CC)Cc1onc(-c2cccc(Cl)c2)c1-c1ccnc(N[C@@H]2CCN(S(=O)(=O)c3cnn(C)c3)C2)n1	–	40	–
CCN(CC)Cc1onc(-c2cccc(Cl)c2)c1-c1ccnc(N[C@@H]2CCN(C(=O)c3cnoc3)C2)n1	13	–	–
O=C(c1cnoc1)N1CC[C@@H](Nc2nccc(-c3c(-c4ccccc4)noc3CN3CCCC3)n2)C1	1400	–	–
Cc1onc(-c2ccc(Cl)cc2)c1-c1ccnc(N[C@@H]2CCN(C(=O)c3cnoc3)C2)n1	2800	–	–
CCN(CC)Cc1onc(-c2cccc(Cl)c2)c1-c1ccnc(N[C@@H]2CCN(C(=O)c3cnsc3)C2)n1	74	–	–
CCN(CC)Cc1onc(-c2cccc(Cl)c2)c1-c1ccnc(N[C@@H]2CCN(C(=O)c3ccsn3)C2)n1	15	–	–
